Laboratory results from patent publication US10081624B2, “Heterocyclic compound” (Takeda Pharmaceutical Company Limited, priority 2014, dated 2018).

Key:
HDAC6 enzyme = biological target: T1, HDAC6 enzyme (Homo sapiens, UniProt Q9UBN7); assay: HDAC6 enzyme inhibitory assay (HDAC-Glo I/II Assay kit); assay type: biochemical; conditions: 1 μM test compound; read-out: HDAC6 inhibitory rate (%) (1 μM)
T1 construct: prepared by transducing full length HDAC1 and HDAC6 genes into Sf-9 insect cells; GST; purchased SignalChem; host or cells: Sf-9 insect cells
T1 sequence (Q9UBN7 1-1215): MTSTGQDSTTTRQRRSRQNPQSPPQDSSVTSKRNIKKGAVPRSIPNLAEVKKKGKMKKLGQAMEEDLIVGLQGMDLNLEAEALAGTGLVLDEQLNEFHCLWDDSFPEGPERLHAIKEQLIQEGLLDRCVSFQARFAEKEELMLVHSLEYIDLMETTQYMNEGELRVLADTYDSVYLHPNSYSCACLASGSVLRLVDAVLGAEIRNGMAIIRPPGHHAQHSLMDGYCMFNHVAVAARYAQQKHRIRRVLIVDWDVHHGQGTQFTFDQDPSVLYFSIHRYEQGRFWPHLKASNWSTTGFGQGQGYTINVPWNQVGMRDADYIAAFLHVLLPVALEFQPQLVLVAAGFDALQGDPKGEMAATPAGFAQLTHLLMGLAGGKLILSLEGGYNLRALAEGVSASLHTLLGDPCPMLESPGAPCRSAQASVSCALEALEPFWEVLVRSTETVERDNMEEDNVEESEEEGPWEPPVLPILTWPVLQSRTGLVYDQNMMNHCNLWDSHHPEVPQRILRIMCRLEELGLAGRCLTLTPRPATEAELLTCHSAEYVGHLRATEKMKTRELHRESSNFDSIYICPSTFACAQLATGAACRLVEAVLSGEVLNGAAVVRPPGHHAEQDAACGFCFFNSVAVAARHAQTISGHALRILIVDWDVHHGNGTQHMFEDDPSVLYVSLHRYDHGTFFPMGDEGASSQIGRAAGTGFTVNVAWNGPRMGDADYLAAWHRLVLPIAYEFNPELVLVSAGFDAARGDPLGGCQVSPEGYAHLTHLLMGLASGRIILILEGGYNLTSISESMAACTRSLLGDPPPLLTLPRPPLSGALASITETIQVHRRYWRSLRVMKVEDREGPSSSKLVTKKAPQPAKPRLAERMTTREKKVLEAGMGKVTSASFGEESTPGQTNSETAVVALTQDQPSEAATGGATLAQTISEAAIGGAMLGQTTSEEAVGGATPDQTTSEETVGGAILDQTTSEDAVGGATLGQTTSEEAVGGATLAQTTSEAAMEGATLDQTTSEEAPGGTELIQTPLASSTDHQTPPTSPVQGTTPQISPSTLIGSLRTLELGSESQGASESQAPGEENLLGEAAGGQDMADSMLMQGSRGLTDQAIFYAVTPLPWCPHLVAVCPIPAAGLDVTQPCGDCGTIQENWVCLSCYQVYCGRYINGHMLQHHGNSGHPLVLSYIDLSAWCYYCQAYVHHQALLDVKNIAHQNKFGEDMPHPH
In short: (§1)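 Luminescent HDAC-Glo I/II read-out after 20 min room-temperature reaction with substrate-developer, following a 60 min room-temperature enzyme–compound preincubation. Enzymes: full-length HDAC1 or HDAC6 from Sf-9 cells, GST-purified; buffer pH 7.5 Tris with NaCl, glutathione, 0.01% Tween-20. No-enzyme wells defined 100% inhibition.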

HDAC1 enzyme = biological target: T2, HDAC1 enzyme (Homo sapiens, UniProt Q13547); assay: HDAC1 enzyme inhibitory assay (HDAC-Glo I/II Assay kit); assay type: biochemical; conditions: 1 μM test compound; read-out: HDAC1 inhibitory rate (%) (1 μM)
T2 construct: prepared by transducing full length HDAC1 and HDAC6 genes into Sf-9 insect cells; GST; purchased SignalChem; host or cells: Sf-9 insect cells
T2 sequence (Q13547 whole entry): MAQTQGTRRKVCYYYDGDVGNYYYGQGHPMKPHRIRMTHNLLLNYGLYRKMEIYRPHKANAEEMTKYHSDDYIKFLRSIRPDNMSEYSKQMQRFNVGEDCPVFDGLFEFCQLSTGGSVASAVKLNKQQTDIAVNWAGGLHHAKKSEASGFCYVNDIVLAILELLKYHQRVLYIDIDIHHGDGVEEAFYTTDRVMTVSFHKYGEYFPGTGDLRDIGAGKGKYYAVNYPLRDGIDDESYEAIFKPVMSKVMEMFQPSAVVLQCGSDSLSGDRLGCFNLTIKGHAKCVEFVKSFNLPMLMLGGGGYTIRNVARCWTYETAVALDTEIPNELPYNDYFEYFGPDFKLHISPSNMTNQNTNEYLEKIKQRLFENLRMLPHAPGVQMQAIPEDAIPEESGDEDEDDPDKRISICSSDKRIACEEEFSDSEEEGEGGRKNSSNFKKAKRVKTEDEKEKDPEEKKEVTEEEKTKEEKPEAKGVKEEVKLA
In short: as §1

inhibition at 1 µM (HDAC6 enzyme) | inhibition at 1 µM (HDAC1 enzyme) | Structure (SMILES)
24% | 3% | Cc1cc(-c2noc(C(F)(F)F)n2)ccc1C(=O)NCC1COCCN1C(=O)c1ccccc1 (centres unmarked) [Example 178, N-((4-benzoylmorpholin-3-yl)methyl)-2-methyl-4-(5-(trifluoromethyl)-1,2,4-oxadiazol-3-yl)benzamide]
111% | 22% | O=C(NCC1COCCN1C(=O)c1ccccc1Cl)c1ccc(-c2noc(C(F)(F)F)n2)cc1 (centres unmarked) [Example 6, N-((4-(2-chlorobenzoyl)morpholin-3-yl)methyl)-4-(5-(trifluoromethyl)-1,2,4-oxadiazol-3-yl)benzamide]
92% | 6% | O=C(NC[C@@H]1COCCN1C(=O)C1(c2ccccc2)CC1)c1ccc(-c2noc(C(F)(F)F)n2)cc1 [Example 128, N-(((3R)-4-((1-phenylcyclopropyl)carbonyl)morpholin-3-yl)methyl)-4-(5-(trifluoromethyl)-1,2,4-oxadiazol-3-yl)benzamide]
97% | 36% | Cc1nc2ccccn2c1C(=O)N1CCOCC1CNC(=O)c1ccc(-c2noc(C(F)(F)F)n2)cc1 (stereo in doubt) [Example 92, N-(((3S)-4-((2-methylimidazo[1,2-a]pyridin-3-yl)carbonyl)morpholin-3-yl)methyl)-4-(5-(trifluoromethyl)-1,2,4-oxadiazol-3-yl)benzamide]
98% | 7% | O=C(NCC1COCCN1C(=O)c1ccccn1)c1ccc(-c2noc(C(F)(F)F)n2)cc1 (centres unmarked) [Example 12, N-((4-(pyridin-2-ylcarbonyl)morpholin-3-yl)methyl)-4-(5-(trifluoromethyl)-1,2,4-oxadiazol-3-yl)benzamide]
94% | 7% | O=C(NCCO)c1cccc(C(=O)N2CCOC[C@@H]2CNC(=O)c2ccc(-c3noc(C(F)(F)F)n3)cc2)c1 [Example 271, N-(2-hydroxyethyl)-3-(((3S)-3-(((4-(5-(trifluoromethyl)-1,2,4-oxadiazol-3-yl)benzoyl)amino)methyl)morpholin-4-yl)carbonyl)benzamide]
96% | 36% | Cn1nc2ccccc2c1C(=O)N1CCOCC1CNC(=O)c1ccc(-c2noc(C(F)(F)F)n2)s1 (centres unmarked) [Example 251, N-((4-((2-methyl-2H-indazol-3-yl)carbonyl)morpholin-3-yl)methyl)-5-(5-(trifluoromethyl)-1,2,4-oxadiazol-3-yl)thiophene-2-carboxamide]
99% | 21% | Cc1ccccc1C(=O)N1CCOCC1CNC(=O)c1ccc(-c2noc(C(F)(F)F)n2)cc1 (centres unmarked) [Example 9, N-((4-(2-methylbenzoyl)morpholin-3-yl)methyl)-4-(5-(trifluoromethyl)-1,2,4-oxadiazol-3-yl)benzamide]
99% | 47% | Cn1nc2ccccc2c1C(=O)N1CCOCC1CNC(=O)c1ccc(-c2noc(C(F)(F)F)n2)cc1 (centres unmarked) [Example 33, N-((4-((2-methyl-2H-indazol-3-yl)carbonyl)morpholin-3-yl)methyl)-4-(5-(trifluoromethyl)-1,2,4-oxadiazol-3-yl)benzamide]
98% | 18% | O=C(NC[C@H]1COCCN1C(=O)C1CCCC1)c1ccc(-c2noc(C(F)(F)F)n2)cc1 [Example 77, N-(((3S)-4-(cyclopentylcarbonyl)morpholin-3-yl)methyl)-4-(5-(trifluoromethyl)-1,2,4-oxadiazol-3-yl)benzamide]
95% | 5% | O=C(NC[C@H]1COCCN1C(=O)c1csnn1)c1ccc(-c2noc(C(F)(F)F)n2)cc1 [Example 70, N-(((3S)-4-(1,2,3-thiadiazol-4-ylcarbonyl)morpholin-3-yl)methyl)-4-(5-(trifluoromethyl)-1,2,4-oxadiazol-3-yl)benzamide]
97% | 42% | O=C(NCC1COCCN1C(=O)c1cc(Cl)cc(Cl)c1)c1ccc(-c2noc(C(F)(F)F)n2)cn1 (centres unmarked) [Example 182, N-((4-(3,5-dichlorobenzoyl)morpholin-3-yl)methyl)-5-(5-(trifluoromethyl)-1,2,4-oxadiazol-3-yl)pyridine-2-carboxamide]
85% | 8% | O=C(NC[C@H]1COCCN1C(=O)N1CCC(c2ccncc2)C1)c1ccc(-c2noc(C(F)(F)F)n2)cc1 (stereo partly drawn) [Example 295, N-(((3S)-4-((3-(pyridin-4-yl)pyrrolidin-1-yl)carbonyl)morpholin-3-yl)methyl)-4-(5-(trifluoromethyl)-1,2,4-oxadiazol-3-yl)benzamide]
48% | 6% | CN(C(=O)C[C@H]1COCCN1C(=O)c1ccccc1)c1ccc(-c2noc(C(F)(F)F)n2)cc1 [Example 161, 2-((3S)-4-benzoylmorpholin-3-yl)-N-methyl-N-(4-(5-(trifluoromethyl)-1,2,4-oxadiazol-3-yl)phenyl)acetamide]
42% | 11% | CN(CC1COCCN1C(=O)c1ccccc1)C(=O)c1ccc(-c2noc(C(F)(F)F)n2)cc1 (centres unmarked) [Example 159, N-((4-benzoylmorpholin-3-yl)methyl)-N-methyl-4-(5-(trifluoromethyl)-1,2,4-oxadiazol-3-yl)benzamide]
98% | 14% | N#Cc1cccc(C(=O)N2CCOCC2CNC(=O)c2ccc(-c3noc(C(F)(F)F)n3)cc2)c1 (centres unmarked) [Example 28, N-((4-(3-cyanobenzoyl)morpholin-3-yl)methyl)-4-(5-(trifluoromethyl)-1,2,4-oxadiazol-3-yl)benzamide]
82% | 5% | O=C(NC[C@H]1COCCN1C(=O)N1CCC(c2cccnc2)C1)c1ccc(-c2noc(C(F)(F)F)n2)cc1 (stereo partly drawn) [Example 294, N-(((3S)-4-((3-(pyridin-3-yl)pyrrolidin-1-yl)carbonyl)morpholin-3-yl)methyl)-4-(5-(trifluoromethyl)-1,2,4-oxadiazol-3-yl)benzamide]
96% | 28% | O=C(NCC1COCCN1C(=O)c1cccc(-c2ccccc2)c1)c1ccc(-c2noc(C(F)(F)F)n2)cc1 (centres unmarked) [Example 31, N-((4-(biphenyl-3-ylcarbonyl)morpholin-3-yl)methyl)-4-(5-(trifluoromethyl)-1,2,4-oxadiazol-3-yl)benzamide]

Structure (SMILES) | inhibition at 1 µM (HDAC6 enzyme) | inhibition at 1 µM (HDAC1 enzyme)
O=C(NC[C@H]1COCCN1C(=O)N1C2CCC1COC2)c1ccc(-c2noc(C(F)(F)F)n2)cc1 [Example 109, N-(((3S)-4-(3-oxa-8-azabicyclo[3.2.1]oct-8-ylcarbonyl)morpholin-3-yl)methyl)-4-(5-(trifluoromethyl)-1,2,4-oxadiazol-3-yl)benzamide] | 99% | 10%
